The term AUC(0-inf) denotes total exposure, with the tail of the curve extrapolated. Read a low AUC(0-inf) as low exposure. For orientation: AUC(0-t) means the area under the concentration-time curve up to a stated or last time point. Low values mean low exposure, high ones high exposure. By Cmax is commonly meant the peak of the concentration-time curve. For orientation: MRT inf means a mean duration of stay, worked out from the concentration-time curve. The MRT last is a mean duration of stay, worked out from the concentration-time curve. The half-life is the time in which the quantity being followed falls by half. Higher therefore signals slow decline. For orientation: Tmax means the time at which the peak concentration occurs.

The results in this text go back to article PMC9531372, “Metabolic profiling and pharmacokinetic studies of Baihu-Guizhi decoction in rats by UFLC-Q-TOF–MS/MS and UHPLC-Q-TRAP-MS/MS” (Chinese Medicine, 2022).

The nature of the series: in vivo. The following applies: for AUC(0-inf) / AUC(0-t) / CL / Cmax / MRT inf / MRT last / Vd / half-life / Tmax: male, Lewis, rat, po. From the text: Male Lewis rats, weighing 200–240 g, were purchased from Beijing Charles River Experimental Animals Co. Ltd. (Beijing, China). […] Animal experiments were approved and supervised by the National Institutes of Health guide for the care and use of Laboratory animals. Every effort was made to minimize both the employed animal numbers as well as the potential discomfort of the animals throughout the study.
For single administration, rats were orally administrated with BHGZD powder at dose of 21.4 g/kg, which was equivalent to two-fold of clinical dose in human. […] For multiple administration, rats were intragastrically administered BHGZD (21.4 g/kg/day) once a day, for continuous 12 days. […] Serum was freshly prepared by centrifugation and stored at – 80 ℃ till analysis.
Quantification for five absorbed compounds of BHGZD in rat serum were achieved by using a Shimadzu ultra-high-performance liquid chromatography tandem ion trap quadrupole Q-TRAP 6500 plus mass spectrometry (UHPLC-Q-TRAP-MS/MS). Sample preparations were described above.
Chromatographic separation was carried out on a Poroshell 120 EC-C18 column (50 × 3.0 mm, 2.7 μm, Agilent, USA) with a flow rate 0.3 mL/min.
The optimized parameters for the mass spectrometer were set as follows: curtain gas, 35 psi; collision gas, medium; ionspray voltage, 4500 V; temperature, 550 °C; ion source gas 1 and 2, 55 psi. […] Data acquisition and analysis were achieved by OS-Q software (version 1.4.1.20719, AB Sciex, USA). Pharmacokinetic analysis was conducted by Drug and Statistic software (version 3.0, Shanghai, China).
The developed methodology was then applied for the in vivo pharmacokinetic evaluations of these five absorbed components. After single or multiple gavages of BHGZD, rat serum was collected at indicated time points, and the concentrations of five analyte were quantified accordingly.

[1] abbreviates: serum, 21.4 g/kg, rat serum, BHGZD 21.4 g/kg oral gavage, single dose, n = 8, mean ± SEM.

Each structure is given as a SMILES string.

For the molecule `O=c1c2cc(O)c(O)cc2oc2cc(O)c([C@@H]3O[C@H](CO)[C@@H](O)[C@H](O)[C@H]3O)c(O)c12` [Mangiferin], where the note is “in vivo, 21.4 g/kg”, the AUC(0-inf) is 298 ± 298 ng·h/mL, the AUC(0-t) was found to be 266 ± 306 ng·h/mL, the CL was 228,709 ± 238,817 L/h/kg and the Cmax amounted to 48.1 ± 52.7 ng/mL. Besides, for the setting “in vivo, 21.4 g/kg”, the MRT inf stood at 6.72 ± 6.64 h, the MRT last came out at 3.6 ± 0.75 h, the Vd was 1,049,685 ± 1,125,516 L/kg and the half-life is 3.64 ± 4.82 h. Moreover, the Tmax (in vivo, 21.4 g/kg) amounted to 2.56 ± 1.68 h.

Under “serum, 21.4 g/kg”, `C[C@H]1CC[C@@]2(OC1)O[C@H]1C[C@H]3[C@@H]4CC[C@@H]5C[C@@H](O[C@@H]6O[C@H](CO)[C@H](O)[C@H](O)[C@H]6O[C@@H]6O[C@H](CO)[C@@H](O)[C@H](O)[C@H]6O)CC[C@]5(C)[C@H]4CC[C@]3(C)[C@H]1[C@@H]2C` [Timosaponin AIII] had an AUC(0-inf) of 45.3 ± 13.9 ng·h/mL, an AUC(0-t) of 35.6 ± 7.99 ng·h/mL, a Cmax of 5.41 ± 1.23 ng/mL and an MRT inf of 9.92 ± 2.73 h. Moreover, where the note is “serum, 21.4 g/kg”, the MRT last came to 7.54 ± 1.15 h and the half-life is 4.98 ± 1.74 h. Besides, the Tmax under setting [1] came out at 6.38 ± 1.69 h. Where the note is “serum, 21.4 g/kg/day, rat serum, BHGZD 21.4 g/kg/day gavage once a day for 12 days, multiple dose, sampled day 12, n = 8, mean ± SEM”, the Tmax amounted to 4.62 ± 2.13 h. Also, the “pattern of absorption and elimination in serum” value (rat serum, single or multiple gavages of BHGZD) was “dual-peak response with prolonged pattern of absorption and elimination”.

For `CC1(C)[C@@H](O[C@H]2O[C@H](C(=O)O)[C@@H](O)[C@H](O)[C@H]2O[C@@H]2O[C@H](C(=O)O)[C@@H](O)[C@H](O)[C@H]2O)CC[C@]2(C)[C@H]3C(=O)C=C4[C@@H]5C[C@@](C)(C(=O)O)CC[C@]5(C)CC[C@@]4(C)[C@]3(C)CC[C@@H]12` [Glycyrrhizic acid], under “in vivo, 21.4 g/kg”, the area under the curve AUC(0-inf) is 91.8 ± 44.2 ng·h/mL, the AUC(0-t) was determined as 67.3 ± 36.8 ng·h/mL, the CL was 288,330 ± 150,321 L/h/kg and the concentration peaked (Cmax) at 15.6 ± 8.97 ng/mL. Also, where the note is “in vivo, 21.4 g/kg”, the MRT inf was found to be 5.83 ± 1.42 h, the MRT last came out at 5.06 ± 1.37 h, the Vd is recorded as 867,518 ± 160,982 L/kg and the half-life was 2.99 ± 0.82 h. For the same molecule, the Tmax (in vivo, 21.4 g/kg) was 5.88 ± 2.85 h.

Under “serum, 21.4 g/kg”, `O=C(O)/C=C/c1ccccc1` [Cinnamic acid] displayed an AUC(0-inf) of 307 ± 120 ng·h/mL, an AUC(0-t) of 110 ± 127 ng·h/mL, a Cmax of 53.3 ± 32.6 ng/mL and an MRT inf of 10.5 ± 12.5 h. In addition, where the note is “serum, 21.4 g/kg”, the MRT last stood at 3.66 ± 1.03 h and the half-life was 2.36 ± 1.03 h. The Tmax (serum, 21.4 g/kg, rat serum after BHGZD gavage, regimen not given) is around 0.3 h. Under setting [1], the Tmax came to 0.37 ± 0.35 h.
